Measurements from publication PMC9181938, “Fluorinated Analogues of Lepidilines A and C: Synthesis and Screening of Their Anticancer and Antiviral Activity” (Molecules, 2022).
Read-outs that look alike come from different tables or passages of the source.

Key:
[1] = Cytotoxicity MTT assay (0.1–1000 µM), CC50; format: cell-based, Human; conditions: human, HeLa cells, MTT, 48 h, read-out: CC50 Cancer Cell Lines HeLa
[2] = Cytotoxicity MTT assay (0.1–1000 µM), CC50; format: cell-based, Human; conditions: human, HepG2 cells, read-out: CC50 Cancer Cell Lines HepG2
[3] = tested on: Human parainfluenza virus type 3 (HPIV-3); experiment: Antiviral activity assay (0.1–1000 µM), IC50; format: cell-based
Protocol: (§1) Antiviral properties of compounds 1e–1g, 1e[PF6], 8a–8d, and 9a were assessed against five viruses: Human herpesvirus 1 (HSV-1, VR-539), Human parainfluenza virus type 3 (HPIV-3, VR-93), Human adenovirus 5 (AdV5, VR-5), Human herpesvirus 5 (HCMV, VR-977), and Encephalomyocarditis virus (EMCV, VR-1479). Viruses were purchased from the American Type Culture Collection (ATCC, Manassas, VA, USA).
(§2) All tested compounds were dissolved in DMSO (dimethyl sulfoxide, Sigma-Aldrich, Darmstadt, Germany) and then suspended in Minimum Essential Medium (MEM; Sigma-Aldrich, Darmstadt, Germany) supplemented with 2% heat-inactivated fetal bovine serum (FBS; Sigma-Aldrich, Darmstadt, Germany), 2 mM L-glutamine (Sigma-Aldrich, Darmstadt, Germany), and 100 units/mL penicillin G with […] streptomycin (Sigma-Aldrich, Darmstadt, Germany).
(§3) Investigated cells were propagated in Minimum Essential Medium (MEM; Sigma-Aldrich, Darmstadt, Germany) supplemented with 10% heat-inactivated fetal bovine serum (FBS; Sigma-Aldrich, Darmstadt, Germany) and 100 units/mL penicillin G with […] streptomycin (Sigma-Aldrich, Darmstadt, Germany). After reaching 80–90% confluency, cells were harvested with trypsin (Life Technologies, Warsaw, Poland) and seeded into 96-well microplates at 2 × 10^5 cells/mL after overnight incubation of cells at 37 °C in a humidified atmosphere containing 5% CO2.
(§4) The culture medium was removed from confluent cells grown in 96-well microplates, and the cells were inoculated with virus solutions in MEM supplemented with 2% FBS and antibiotics (HSV-1 MOI 0.005, 1000 virions/mL; HPIV-3 MOI 0.01, 2000 virions/mL; AdV5 MOI 0.005, 1000 virions/mL; EMCV 0.005, 1000 virions/mL; HCMV 20 PFU/well (plaque-forming units per well). After a 1-h (HSV-1, HPIV-3, AdV5, and EMCV) or 2-h adsorption period (HCMV), residual viral particles were removed, and infected cells were further incubated with MEM supplemented with 2% FBS containing compound concentrations in the range from 0.1 to 1000 µM [38]. All experiments were carried out in triplicate. The cell monolayers were incubated with the investigated compounds at 37 °C in a humidified atmosphere containing 5% CO2 until a cytopathic effect (CPE) was visible. Viral infection was evaluated by the MTT assay (as described previously) or plaque reduction assay. HCMV plaques were counted under an inverted microscope, Olympus IX73 (Olympus, Tokyo, Japan). Antiviral activity was expressed as the concentration required to reduce the number of viral plaques to 50% of the control (virus-infected but untreated).

[4] = tested on: Encephalomyocarditis virus (EMCV); experiment: Antiviral activity assay (0.1–1000 µM), IC50; format: cell-based; conditions: Cardiovirus A, MOI 0.005, read-out: IC50 EMCV
Protocol: as §1, §2, §3, §4

[5] = tested on: Human adenovirus 5 (AdV5); experiment: Antiviral activity assay (0.1–1000 µM), IC50; format: cell-based; conditions: Human mastadenovirus C; AdV5, MOI 0.005; read-out: IC50 AdV5
Protocol: as §1, §2, §3, §4

[6] = tested on: Human herpesvirus 1 (HSV-1); experiment: Antiviral activity assay (0.1–1000 µM), IC50; format: cell-based; conditions: Human alphaherpesvirus 1; HSV-1, MOI 0.005
Protocol: as §1, §2, §3, §4

[7] = Cytotoxicity MTT assay (0.1–1000 µM), CC50; format: cell-based, Mus musculus; conditions: Mus musculus, NCTC clone 929 cells, NCTC clone 929, MTT, 48 h; read-out: CC50 Normal Cell Lines NCTC Clone 929
[8] = Cytotoxicity MTT assay (0.1–1000 µM), CC50; format: cell-based, Macaca mulatta; conditions: Macaca mulatta, LLC-MK2 cells, LLC-MK2, MTT, 48 h; read-out: CC50 Normal Cell Lines LLC-MK2
[9] = tested on: LLC-MK2 cells; experiment: Cytotoxicity MTT assay (0.1–1000 µM), CC50; format: cell-based, Macaca mulatta
[10] = tested on: Human herpesvirus 5 (HCMV); experiment: Antiviral activity assay (0.1–1000 µM), IC50, plaque reduction; format: cell-based; conditions: Human betaherpesvirus 5, 20 PFU/well
Protocol: as §1, §2, §3, §4

[11] = Cytotoxicity MTT assay (0.1–1000 µM), CC50; format: cell-based, Human; conditions: human, A549 cells, read-out: CC50 Cancer Cell Lines A549
[12] = Cytotoxicity MTT assay (0.1–1000 µM), CC50; format: cell-based, Human; conditions: human, MRC-5 cells, MRC-5, MTT, read-out: CC50 Normal Cell Lines MRC-5
[13] = Cytotoxicity MTT assay (0.1–1000 µM), CC50; format: cell-based, Cercopithecus aethiops; conditions: Cercopithecus aethiops, Vero cells, read-out: CC50 Normal Cell Lines Vero
[14] = Cytotoxicity screening at 10 µM (MTT); format: cell-based, Cercopithecus aethiops; conditions: Cercopithecus aethiops, Vero cells, read-out: Cell line (viability %) Vero
[15] = Cytotoxicity screening at 10 µM (MTT); format: cell-based, Human; conditions: human, MRC-5 cells, read-out: Cell line (viability %) MRC-5
[16] = tested on: Human parainfluenza virus type 3 (HPIV-3); experiment: Antiviral screening at 10 µM; format: cell-based; conditions: antiviral screening, HPIV-3-infected cells
Protocol: as §1, with “1a, 1c, 1a[PF6], 1c[PF6], 9b[PF6], 9c[PF6], 10a–10d, 2a,” for “1e–1g, 1e[PF6], 8a–8d,”, “2b” for “9a”
as §2
(§5) Vero, LLC-MK2, NCTC clone 929, MRC-5, and HeLa cells were propagated in Minimum Essential Medium (MEM; Sigma-Aldrich, Darmstadt, Germany) supplemented with 10% heat-inactivated fetal bovine serum (FBS; Sigma-Aldrich, Darmstadt, Germany) and 100 units/mL penicillin G with […] streptomycin (Sigma-Aldrich, Darmstadt, Germany). Upon reaching 80–90% confluency, cells were harvested with 0.25% trypsin in 1 mM EDTA (Life Technologies, Warsaw, Poland) and seeded onto 96-well microplates at 2 × 10^5 cells/mL. After overnight incubation of cells at 37 °C in a humidified atmosphere containing 5% CO2, the culture medium was removed, and cells were inoculated with the respective virus solution in MEM supplemented with 2% FBS and antibiotics (HSV-1 MOI 0.005, 1000 virions/mL; HPIV-3 MOI 0.01, 2000 virions/mL; AdV5 MOI 0.005, 1000 virions/mL, EMCV MOI 0.005, 1000 virions/mL, HCMV 20 PFU (plaque forming units) per well). After a 1-h (HSV-1, HPIV-3, AdV5, and EMCV) or 2-h adsorption period (HCMV), the residual virus was removed, and the infected cells were further incubated with a 100 μL freshly prepared solution of tested compounds diluted with a maintenance medium supplemented with 2% FBS to obtain compound concentrations of 10 µM. The final concentration of DMSO in the medium was 0.1%. All experiments were carried out in triplicate. The cells monolayers were incubated with the compounds at 37 °C in a humidified atmosphere containing 5% CO2 until the typical cytopathic effect (CPE) was visible. Viral infection was evaluated by the MTT assay or plaque reduction assay (HCMV). After incubation with drugs, the cells were treated with 3-(4,5-dimethylthiazol-2-yl)-2,5-diphenyltetrazolium bromide dye solution (MTT, Sigma-Aldrich, Darmstadt, Germany) (25 μL, 5 mg/mL) for 2 h and lysed with solvent solution (100 μL) containing: DMF (Sigma-Aldrich, Darmstadt, Germany) (45 mL), SDS (Sigma-Aldrich, Darmstadt, Germany) (13.5 g), and distilled water (55 mL). After overnight incubation at 37 °C, the optical density at 550 nm and a reference wavelength of 670 nm were measured on a microplate spectrophotometer, Varioskan Lux (Thermo Fisher Scientific, Waltham, MA, USA). The number of HCMV plaques was counted under an inverted microscope Olympus IX73 (Olympus, Tokyo, Japan).

[17] = tested on: Encephalomyocarditis virus (EMCV); experiment: Antiviral screening at 10 µM; format: cell-based; conditions: Cardiovirus A, EMCV-infected cells, read-out: Cell line (viability %) EMCV
Protocol: as §1, with “1a, 1c, 1a[PF6], 1c[PF6], 9b[PF6], 9c[PF6], 10a–10d, 2a,” for “1e–1g, 1e[PF6], 8a–8d,”, “2b” for “9a”
as §2, §5

[18] = tested on: Human adenovirus 5 (AdV5); experiment: Antiviral screening at 10 µM; format: cell-based; conditions: AdV5-infected cells
Protocol: as §1, with “1a, 1c, 1a[PF6], 1c[PF6], 9b[PF6], 9c[PF6], 10a–10d, 2a,” for “1e–1g, 1e[PF6], 8a–8d,”, “2b” for “9a”
as §2, §5

[19] = tested on: Human herpesvirus 1 (HSV-1); experiment: Antiviral screening at 10 µM; format: cell-based; conditions: antiviral screening, HSV-1-infected cells
Protocol: as §1, with “1a, 1c, 1a[PF6], 1c[PF6], 9b[PF6], 9c[PF6], 10a–10d, 2a,” for “1e–1g, 1e[PF6], 8a–8d,”, “2b” for “9a”
as §2, §5

[20] = tested on: NCTC clone 929 cells; experiment: Cytotoxicity screening at 10 µM (MTT); format: cell-based, Mus musculus; conditions: 48 h
[21] = Cytotoxicity screening at 10 µM (MTT); format: cell-based, Macaca mulatta; conditions: Macaca mulatta, LLC-MK2 cells, read-out: Cell line (viability %) LLC-MK2
[22] = Cytotoxicity screening at 10 µM (MTT); format: cell-based, Human; conditions: human, HeLa cells, read-out: Cell line (viability %) HeLa
[23] = Human respirovirus 3, HPIV-3, MOI 0.01, read-out: IC50 HPIV-3

Row | IC50 [3, 23] [M] | IC50 [4] [µM] | IC50 [5] [µM] | IC50 [6] [µM] | IC50 [10] [µM] | melting point | Structure (SMILES) | CC50 at 48 h [1] [µM] | CC50 at 48 h [2] [µM] | CC50 at 48 h [7] [µM] | CC50 at 48 h [8] [µM] | CC50 at 48 h [11] [µM] | CC50 at 48 h [12] [µM] | CC50 at 48 h [13] [µM] | further results
1 | > 4e-08 | > 3.75 | > 0.019 | > 0.347 | > 0.09 | 216 to 217 °C | FC(F)(F)c1cccc(C[n+]2cn(Cc3ccccc3)c(-c3ccccc3)c2-c2ccccc2)c1.[Br-] [Compound 9a, 1-Benzyl-4,5-diphenyl-3-[3-(trifluoromethyl)benzyl]imidazolium bromide] | 0.019 ± 0.001 | 6.9 ± 0.361 | 3.75 ± 0.087 | 0.04 to 0.347 | 0.035 ± 0.005 |  |  | CC50 ([9]; LLC-MK2, MTT, 48 h, read-out: CC50 Normal Cell Lines LLC-MK2): 0.04 ± 0.002 µM
2 | > 0.000327 | > 257 | > 20 | > 250 | > 206 | 124 to 126 °C | Cc1c(C)[n+](OCc2ccccc2)cn1Cc1cccc(F)c1.[Br-] [Compound 8a, 3-Benzyloxy-1-(3-fluorobenzyl)-4,5-dimethylimidazolium bromide] | 20 ± 3.46 | 361.7 ± 2.89 | 257 ± 10.4 | 327 ± 7.64 | 7.5 ± 0.5 | 206 ± 8.61 | 250 ± 10 | 
3 | > 0.000257 | > 90.7 | > 7.33 | > 143 | > 24.3 | 108 to 110 °C | Cc1c(C)[n+](OCc2ccccc2)cn1Cc1cccc(OC(F)(F)F)c1.[Br-] [Compound 8b, 3-Benzyloxy-4,5-dimethyl-1-[3-(trifluoromethoxy)benzyl]imidazolium bromide] | 7.33 ± 0.76 | 163 ± 6.43 | 90.7 ± 4.16 | 257 ± 6.77 | 5.5 ± 0.5 | 24.3 ± 2.08 | 143 ± 2.89 | 
4 | > 7.5e-06 | > 283 | > 5.5 | > 229 | > 59.7 | 180 to 182 °C (dec.) | Cc1c(C)[n+](OCc2ccccc2)cn1Cc1ccc(C(F)(F)F)cc1.[Br-] [Compound 8d, 3-Benzyloxy-4,5-dimethyl-1-[4-(trifluoromethyl)benzyl]imidazolium bromide] | 5.5 ± 0.5 | 322 ± 5.77 | 283 ± 10.4 | 7.5 ± 1 | 5.07 ± 0.12 | 59.7 ± 2.52 | 229 ± 9.02 | 
5 | > 5.9e-05 | > 48.3 | > 0.039 | > 38 | > 36.7 | 108 to 110 °C | Cc1c(C)[n+](Cc2cccc(OC(F)(F)F)c2)cn1Cc1ccccc1.[Cl-] [Compound 1f, 1-Benzyl-4,5-dimethyl-3-[3-(trifluoromethoxy)benzyl]imidazolium chloride] | 0.039 ± 0.001 | 152 ± 2 | 48.3 ± 2.89 | 59 ± 1 | 1.6 ± 0.173 | 36.7 ± 2.31 | 38 ± 4 | 
6 | > 5.5e-05 | > 28.5 | > 16 | > 53.7 | > 45.7 | 123 to 125 °C | Cc1c(C)[n+](OCc2ccccc2)cn1Cc1ccccc1C(F)(F)F.[Br-] [Compound 8c, 3-Benzyloxy-4,5-dimethyl-1-(2-(trifluoromethyl)benzyl)imidazolium bromide] | 16 ± 1 | 95 ± 1 | 28.5 ± 0.5 | 55 ± 1 | 7.37 ± 0.32 | 45.7 ± 3.79 | 53.7 ± 1.53 | 
7 |  |  |  |  |  |  | Cc1c(C)[n+](Cc2ccccc2)cn1Cc1ccccc1 [Compound 1a, lepidiline A, reference compound] |  |  |  | < 80 |  |  |  | viability at 48 h, 10 µM [14]: 90.5%; viability at 48 h, 10 µM [15]: 90.2%; Cell line (viability %) HPIV-3 [16]: 86.0%; viability at 10 µM [17]: 7.4%; Cell line (viability %) AdV5 [18]: 45.8%; Cell line (viability %) HSV-1 [19]: 48.0%; Cell line (viability %) NCTC clone 929 [20]: 86.0%; viability at 48 h, 10 µM [21]: 76.3%; IC50 ([3]; Table S4, range 0.1-1000 µM, HPIV-3, read-out: IC50 (M) HPIV-3): > 6.77e-05 M; CC50 ([9]; Table S2, range 0.1-1000 µM, LLC-MK2, read-out: Cell line (CC50 M) LLC-MK2): 67.7 ± 2.52 µM; viability at 48 h, 10 µM [22]: 43%
